Assay results taken from article PMC4942819 (Scientific Reports, 2016).
In brackets after ≈: the same amount, converted by molar mass. Several values for one entry are separate records, joined by “and”; a condition that tells them apart may be missing. Equal values may be shown once. Read-outs that look alike come from different tables or passages of the source.

Experiments:
[1] = system: Mycobacterium tuberculosis H37Rv; test: microplate Alamar blue assay (MABA), MIC; type: cell-based; details: replicating H37Rv
Mycobacterium avium = test: microdilution plate assay, MIC; type: cell-based
[2] = system: Mycobacterium tuberculosis Erdman; test: microplate Alamar blue assay (MABA), MIC; type: cell-based
Vero cells = test: cytotoxicity, MTT assay; type: cell-based; details: Chlorocebus sabaeus
Method: (§1) The compounds were examined for toxicity (IC50) using MTT assay. Briefly, cells (3 ~ 5 × 10^3 cells/well) were seeded in a 96-well plate. After 24 h incubation, the cells were treated with various concentrations of drugs for 24, 48, 72 h, respectively. Columns one and two in the assay plates contained-media +0.1% DMSO for a negative control ,Then, 20 μl of a 5 mg/mL MTT solution was added to each well, and the plates were incubated for an additional 2~4 h at 37 °C. The medium was subsequently discarded, and DMSO 150 μL was added to dissolve the formazan. Oscillate 15 min, the OD 570 was measured using a Spectra MAX M5 microplate spectrophotometer (Molecular Devices, CA, USA), and the IC50 values were calculated.
(§2) Compound MIC was conducted by ShangHai Chempartner Co., Ltd (Shanghai, China) using the microplate Alamar Blue assay (MABA) against Mycobacterium tuberculosis H37Ra (ATCC 25177). Cytotoxicity of tested compounds was assessed on Vero cells.

A549 cells = test: cytotoxicity, MTT assay; type: cell-based; details: Homo sapiens
Method: as §1

J774A.1 cells = test: cytotoxicity, MTT assay; type: cell-based; details: Mus musculus, J774.A1
Method: as §1

M. tuberculosis H37Rv = test: MABA checkerboard synergy assay; type: cell-based, Mycobacterium tuberculosis
[3] = system: M. tuberculosis Erdman in J774A.1 cells; test: macrophage assay, intracellular activity; type: cell-based, Mycobacterium tuberculosis
Method: As described previously, J774A.1 cells were grown in 75-cm2 cell culture flasks in 10% FBS in Dulbecco’s modified Eagle’s medium (DMEM) until confluency. The cells were detached using a cell scraper, and then centrifuged at 200 g for 5 min at room temperature. The cells were incubated at 37 °C under 5% CO2 for 16 h after distributing into 24-well plates containing coverslips. M. tuberculosis Erdman (ATCC 35801) were diluted to a final concentration of 1 × 10^5 to 3 × 10^5 CFU/mL with DMEM after thawing and sonicating from frozen cultures. And 500 ul of the dilution was dispensed to each well of a new 24-well plate. Followed by, J774A.1 cells on coverslips were infected by incubation with M. tuberculosis Erdman at 37 °C for 2 h. Coverslips were then washed with HBSS and transferred to new 24-well plates. The Cultures were treated in triplicate with compounds at 0.02 μM containing DMEM and incubated at 37 °C under 5% CO2 for 16 h. At D 0 (for untreated controls) and after 7 days of incubation, macrophage cells were lysed by addition of 200 μL of 0.25% sodium dodecyl sulfate. The plates were incubated at 37 °C for 10 min, and 200 μL of DMEM was added. The lysate was sampled using a microtube and sonicated for 15 s. Then 1:1, 1:10, 1:100, and 1:1,000 dilutions were plated on 7H11 agar plates and CFU counts determined after 2 to 3 weeks of incubation at 37 °C.

[4] = pharmacokinetic study in SD rats; type: in vivo; details: female, rat, 5 mg/kg
Method: All animal experiments have been approved by the Institutional Animal Care and Treatment Committee of Sichuan University in China and were carried out in accordance with the approved guidelines. SPF female SD rats weighing 180–220 g were used in the pharmacokinetic study. The rats were fasted overnight before dosing. Every treatment group contain 3 rats. Rats were dosed with SKLB-TB1001 or BTZ043 suspension at 5 mg/kg (i.v. and p.o.). Compounds were dissolved in 5% DMSO/10% Solutol HS15 in saline for intravenous injection and suspended in 0.5% CMC for oral administration. Blood was collected from the jugular vein of each animal at the following times after administration of drugs: 0.083, 0.25, 0.5, 1, 2, 4, 6, 8 and 24 h after a single i.v. dosing; and 0.25, 0.5, 1, 2, 4, 6, 8 and 24 h after a single oral dosing. All blood samples were centrifuged at 3000 r/min for 10 min to obtain serum which was then stored at −20 °C. 150 μL of the serum was added to 500 μL of acetonitrile and the mixture was centrifuged at 13000 r/min for 10 min to remove protein. The supernatant was dried and dissolve in 100 μL of acetonitrile, the solution was centrifuged at 13000 r/min for 10 min. The supernatant was moved to a sample bottle for HPLC analysis. Total area under the concentration time curve (AUC), the elimination half-time (t1/2), the peak concentration (Cmax) and the time to reach peak concentration (Tmax) of samples were determined directly from the experimental data using WinNonlin V6.2.1.

M. tuberculosis Erdman = test: in vivo acute M.tb Erdman infection mouse model; set-up: species or system Mycobacterium tuberculosis
[5] = system: Mycobacterium tuberculosis H37Ra (ATCC 25177); test: microplate Alamar Blue assay (MABA), MIC, H37Ra; type: cell-based
Method: as §2

aqueous solubility = type: physicochemical
Method: (§3) The In vitro ADME/T assays were conducted at WuXi AppTec Co. Ltd.(Shanghai). ClogP was calculated with ChemDraw Ultra 14.0. In the study of bi-directional permeability across MDR1-MDCKII cell monolayer, permeability was correlated with the apparent permeability coefficient Papp (cm/s), which was interpreted as follows: Low permeability( Papp ≤ 1.0×10^-6 cm/s), Moderate permeability(1.0×10^-6 < Papp < 5.5×10^-6 cm/s) or High permeability( Papp ≥ 5.5×10^-6 cm/s). ^aaqueous solubility at room temperature.

plasma protein binding = type: in vitro ADME; details: mouse
Method: as §3

[6] = system: MDR1-MDCKII cell monolayer; test: bi-directional permeability across MDR1-MDCKII cell monolayer; type: in vitro ADME; details: dog, MDCK-MDR1
Method: as §3

CYP2C19 = CYP2C19 (Homo sapiens, UniProt P33261); test: CYP inhibition; type: in vitro ADME; details: read-out: CYP inhibition IC50, CYP2C19
Chain of CYP2C19 (P33261 whole entry): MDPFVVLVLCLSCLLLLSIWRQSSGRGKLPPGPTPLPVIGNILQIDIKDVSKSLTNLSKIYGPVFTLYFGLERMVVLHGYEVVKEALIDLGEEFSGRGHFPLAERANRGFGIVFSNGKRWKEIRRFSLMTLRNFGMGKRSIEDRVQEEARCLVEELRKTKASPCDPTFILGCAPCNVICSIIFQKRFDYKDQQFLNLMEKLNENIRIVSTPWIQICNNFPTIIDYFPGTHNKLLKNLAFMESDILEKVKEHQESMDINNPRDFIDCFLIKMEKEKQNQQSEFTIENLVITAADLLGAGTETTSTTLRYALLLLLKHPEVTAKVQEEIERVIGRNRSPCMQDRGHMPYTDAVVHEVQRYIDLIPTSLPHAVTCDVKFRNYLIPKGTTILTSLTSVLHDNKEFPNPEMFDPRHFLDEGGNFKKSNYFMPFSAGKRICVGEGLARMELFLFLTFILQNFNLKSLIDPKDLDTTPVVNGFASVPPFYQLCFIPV
Method: as §3

CYP2C9 = CYP2C9 (Homo sapiens, UniProt P11712); test: CYP inhibition; type: in vitro ADME; details: read-out: CYP inhibition IC50, CYP2C9
Chain of CYP2C9 (P11712 whole entry): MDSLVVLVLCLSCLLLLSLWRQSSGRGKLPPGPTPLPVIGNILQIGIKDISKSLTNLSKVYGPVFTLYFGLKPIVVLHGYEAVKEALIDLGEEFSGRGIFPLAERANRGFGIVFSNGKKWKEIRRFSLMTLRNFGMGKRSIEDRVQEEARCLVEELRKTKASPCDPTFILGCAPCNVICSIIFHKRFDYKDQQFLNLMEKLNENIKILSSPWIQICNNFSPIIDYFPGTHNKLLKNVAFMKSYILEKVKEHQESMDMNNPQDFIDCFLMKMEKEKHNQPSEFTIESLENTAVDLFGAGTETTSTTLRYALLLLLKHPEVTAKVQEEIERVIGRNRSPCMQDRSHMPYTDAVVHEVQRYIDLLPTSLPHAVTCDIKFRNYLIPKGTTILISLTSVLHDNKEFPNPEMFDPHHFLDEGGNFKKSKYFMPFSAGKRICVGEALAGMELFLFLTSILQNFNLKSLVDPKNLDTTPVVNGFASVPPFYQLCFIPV
Method: as §3

CYP2D6 = CYP2D6 (Homo sapiens, UniProt P10635); test: CYP inhibition; type: in vitro ADME; details: read-out: CYP inhibition IC50, CYP2D6
Chain of CYP2D6 (P10635 whole entry): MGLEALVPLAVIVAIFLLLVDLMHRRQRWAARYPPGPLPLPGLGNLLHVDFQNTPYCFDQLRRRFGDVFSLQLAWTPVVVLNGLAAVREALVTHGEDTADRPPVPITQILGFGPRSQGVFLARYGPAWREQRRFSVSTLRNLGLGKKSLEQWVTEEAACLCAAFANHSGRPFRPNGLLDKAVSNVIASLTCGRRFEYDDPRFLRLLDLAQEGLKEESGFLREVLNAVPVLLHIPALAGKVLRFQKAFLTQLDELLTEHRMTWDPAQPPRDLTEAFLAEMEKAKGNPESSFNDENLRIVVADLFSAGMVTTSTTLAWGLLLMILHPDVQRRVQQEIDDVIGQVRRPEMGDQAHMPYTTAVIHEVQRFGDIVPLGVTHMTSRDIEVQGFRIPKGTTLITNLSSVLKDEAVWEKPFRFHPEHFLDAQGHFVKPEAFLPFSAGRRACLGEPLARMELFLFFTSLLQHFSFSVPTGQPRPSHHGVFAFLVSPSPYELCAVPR
Method: as §3

CYP3A4 = CYP3A4 (Homo sapiens, UniProt P08684); test: CYP inhibition; type: in vitro ADME; details: read-out: CYP inhibition IC50, CYP3A4
Chain of CYP3A4 (P08684 whole entry): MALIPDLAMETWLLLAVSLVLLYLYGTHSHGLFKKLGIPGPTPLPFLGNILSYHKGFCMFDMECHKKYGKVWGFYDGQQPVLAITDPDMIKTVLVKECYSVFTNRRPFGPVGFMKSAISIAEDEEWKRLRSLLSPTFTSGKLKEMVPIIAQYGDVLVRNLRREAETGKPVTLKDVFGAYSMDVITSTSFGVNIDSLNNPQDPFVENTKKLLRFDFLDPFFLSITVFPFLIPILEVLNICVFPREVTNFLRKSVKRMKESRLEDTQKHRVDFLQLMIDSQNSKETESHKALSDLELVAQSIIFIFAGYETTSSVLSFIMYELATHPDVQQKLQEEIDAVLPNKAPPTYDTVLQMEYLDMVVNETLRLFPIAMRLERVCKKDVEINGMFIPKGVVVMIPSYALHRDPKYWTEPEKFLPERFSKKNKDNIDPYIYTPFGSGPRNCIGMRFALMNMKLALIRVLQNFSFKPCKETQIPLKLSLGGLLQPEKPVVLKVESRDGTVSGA
Method: as §3

[7] = system: Mycobacterium tuberculosis; set-up: method as in PMID 19299584; details: cited from earlier work

In the case of `C[C@H]1COC2(CCN(c3nc(=O)c4cc(C(F)(F)F)cc([N+](=O)[O-])c4s3)CC2)O1` [BTZ043], the MIC [1] is reported as 0.02 µg/mL (≈ 0.0464 µM), the MIC (Mycobacterium avium) is reported as 32 µg/mL (≈ 74.2 µM) and the MIC [2] is reported as less than 0.05 µg/mL. For the same molecule, the IC50 (Vero cells; Vero, cytotoxicity, read-out: IC50 Vero) was greater than 100 µg/mL, the IC50 (Vero cells; cytotoxicity on Vero cells, read-out: IC50) was greater than 20 µM and the IC50 (A549 cells) was 25 µg/mL (≈ 58 µM). The IC50 (J774A.1 cells) was 32 µg/mL (≈ 74.2 µM), the MIC (M. tuberculosis H37Rv; Mycobacterium tuberculosis, H37RV, 336 h, checkerboard, drug alone, read-out: MIC against H37Rv, MIC alone) was 0.011 µg/mL and the “MIC against H37Rv, MIC in combo.” value (M. tuberculosis H37Rv; in combination with RMP) was 0.008 µg/mL. The “Log10 CFU, intracellular Mtb Erdman” value ([3]; J774A.1 macrophages, 0.02 μM (Fig. 2 legend: 0.02 μg/mL), 7 days) was 4.70, the “Fold(log) reduction” value ([3]; decrease of log10 CFU between D7 and treatment group, J774A.1, 0.02 μM (Fig. 2 legend: 0.02 μg/mL)) was 2.2 log and 2.15 log and the bioavailability ([4]; SD, in vivo) was 29.5%. It also gave an AUC ([4]; SD, in vivo, po) of 899 ng·h/mL, a Cmax ([4]; SD, in vivo, po) of 543 ng/mL and a Tmax ([4]; SD, in vivo, po) of 15 min. The half-life ([4]; plasma, po, SD rats, terminal half-life for elimination) was 73.2 min, the “activity in the acute Mtb Erdman infection mouse model” value (M. tuberculosis Erdman; 150 mg/kg) was “not significantly active” and the “Log10 CFU (SD), bacterial burden in mouse lungs” value (M. tuberculosis Erdman; BALB/c mice, Day-36, 150 mg/kg oral daily from day 10) was 6.31 (5.85). The MIC [5] was less than 0.1 µM, the Solubility (aqueous solubility) was less than 1 and the fraction unbound (plasma protein binding) was less than 0.01. For the same molecule, the “Permeability (Mean Papp, MDR1) A to B” value [6] was 9.02 10^-6 cm/s, the “Permeability (Mean Papp, MDR1) B to A” value [6] was 7.17 10^-6 cm/s and the “efflux ratio” value [6] was 0.79. It also gave an IC50 (CYP2C19) greater than 10 µM, an IC50 (CYP2C9) greater than 10 µM and an IC50 (CYP2D6) greater than 10 µM. For the same molecule, the IC50 (CYP3A4) was greater than 10 µM and the MIC [7] was 0.001 µg/mL (≈ 0.00232 µM).
